The source of these data is patent publication US12251387B2, “Substituted quinoxalines and benzo[c][1,2,5]oxadiazoles as DNA-PK inhibitors” (Vertex Pharmaceuticals Incorporated, priority 2013, dated 2025).

One may read the Ki as the dissociation constant of the complex between target and ligand, obtained from inhibition or displacement.

This assay deals with DNA-PK (Homo sapiens, UniProt P78527). Nature of the assay: DNA-PK Inhibition Assay (standard radiometric kinase assay, 33P-ATP, peptide substrate). The note with it: radiometric assay, approximately 6 nM DNA-PK, 100 μM ATP, 45 min; fit to competitive tight-binding inhibition; read-out: Ki for the inhibition of DNA-PK. Format: biochemical. Summed up:
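Radiometric transfer of 33P from ATP (100 μM) to peptide substrate (0.8 mg/mL) by about 6 nM DNA-PK with 10 μg/mL sheared dsDNA, pH 7.5 HEPES/MgCl2, 45 min, phosphoric acid quench, filter capture and scintillation counting. Ki fitted to a competitive tight-binding inhibition model.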
For `CN(C)CCOc1ccc(N[C@H]2CC[C@@H](Oc3cc(N4CCOCC4)cc4nccnc34)CC2)nc1` [Compound 654], the Ki was < 100 nM.

Turning to `Clc1cc(N[C@H]2CC[C@@H](Oc3cc(N4CCOCC4)cc4nccnc34)CC2)nc(C2CC2)n1` [Compound 605], the Ki was < 100 nM. `COc1ncccc1N[C@H]1CC[C@@H](Oc2cc(N3CCOCC3)cc3nccnc23)CC1` [Compound 445]: the inhibition constant (Ki) is < 100 nM. With `Clc1ccc(N[C@H]2CC[C@@H](Oc3cc(N4CCOCC4)cc4nccnc34)CC2)nn1` [Compound 40] the figure was < 100 nM.

For the molecule `CN1CCN(Cc2nccc(N[C@H]3CC[C@@H](Oc4cc(N5CCOCC5)cc5nccnc45)CC3)n2)CC1` [Compound 484], the inhibitory constant (Ki) is < 100 nM. For `c1cnc(NC[C@H]2C[C@@H](Oc3cc(N4CCOCC4)cc4nccnc34)C2)nc1` [Compound 307] the value was < 100 nM. With `O=C(N[C@H]1CC[C@@H](Oc2cc(N3CCOCC3)cc3nccnc23)CC1)N1CCCCC1` [Compound 416] the figure was < 100 nM. As for `c1nc(N[C@H]2CC[C@@H](Oc3cc(N4CCOCC4)cc4nccnc34)CC2)c2c(n1)OCC2` [Compound 479], the Ki is < 100 nM. On to `CSc1nc(N[C@H]2CC[C@@H](Oc3cc(N4CCOCC4)cc4nccnc34)CC2)cs1` [Compound 628], for which the Ki was < 100 nM. Take `Cc1cc(N[C@H]2CC[C@@H](Oc3cc(N4CCOCC4)cc4nccnc34)CC2)n[nH]1` [Compound 637]: the Ki was < 100 nM. For `FC(F)Oc1ccc(N[C@H]2CC[C@@H](Oc3cc(N4CCOCC4)cc4nccnc34)CC2)nc1` [Compound 572], the Ki was < 100 nM. Turning to `Fc1c(N[C@H]2CC[C@@H](Oc3cc(N4CCOCC4)cc4nccnc34)CC2)ncnc1C1CC1` [Compound 456], the Ki was < 100 nM.

For the molecule `Cc1nccc(N[C@H]2CC[C@@H](Oc3cc(C4=CCOCC4)cc4nccnc34)CC2)n1` [Compound 352], the inhibitory constant (Ki) is < 100 nM.

Take `CC(C)Oc1cc(N[C@H]2CC[C@@H](Oc3cc(N4CCOCC4)cc4nccnc34)CC2)ccn1` [Compound 349]: the Ki was < 100 nM. For `COc1cc(N[C@H]2CC[C@@H](Oc3cc(N4CCOCC4)cc4nccnc34)CC2)nc(N(C)C)n1` [Compound 553] the value was < 100 nM.

For the molecule `CN(C)c1ncnc(N[C@H]2CC[C@@H](Oc3cc(N4CCOCC4)cc4nccnc34)CC2)c1F` [Compound 512], the inhibition constant Ki was < 100 nM. For `Clc1nc(N[C@H]2CC[C@@H](Oc3cc(N4CCOCC4)cc4nccnc34)CC2)nc2[nH]ccc12` [Compound 501] the value was < 100 nM. For the molecule `c1cnc2c(O[C@H]3CC[C@@H](Nc4cc5ncnn5cn4)CC3)cc(N3CCOCC3)cc2n1` [Compound 510], the Ki was < 100 nM.

As for `CN1CCC(c2cnc(N(C)[C@H]3CC[C@@H](Oc4cc(N5CCOCC5)cc5nccnc45)CC3)nc2)CC1` [Compound 657], the Ki was < 100 nM.

Consider `COc1nccnc1N[C@H]1CC[C@@H](Oc2cc(N3CCOCC3)cc3nccnc23)CC1` [Compound 312], for which the Ki was < 100 nM. With `Cc1cc(N[C@H]2CC[C@@H](Oc3cc(N4CCOCC4)cc4nccnc34)CC2)n2ncnc2n1` [Compound 536] the figure was < 100 nM; with `Cc1cc(N[C@H]2CC[C@@H](Oc3cc(N4CCOCC4)cc4nccnc34)CC2)cc(C)n1` [Compound 286], < 100 nM.

Consider `Cc1cnc(C)c(N[C@H]2CC[C@@H](Oc3cc(N4CCOCC4)cc4nccnc34)CC2)n1` [Compound 333], for which the inhibitory constant (Ki) was < 100 nM.

Take `CC(C)Nc1cnc(N[C@H]2CC[C@@H](Oc3cc(N4CCOCC4)cc4nccnc34)CC2)nc1` [Compound 152]: the Ki was < 100 nM. Regarding `Cc1nc(N[C@H]2CC[C@@H](Oc3cc(N4CCOCC4)cc4nccnc34)CC2)c2occc2n1` [Compound 435], the Ki is < 100 nM. As to `Cc1nccc(N[C@H]2CC[C@@H](Oc3cc(N4CC5CC(C4)O5)cc4nccnc34)CC2)n1` [Compound 353], the Ki is < 100 nM. For `NC(=O)c1cnc2cc(N3CCOCC3)cc(O[C@H]3CC[C@@H](Nc4ncccn4)CC3)c2n1` [Compound 606] the value was < 100 nM. For `CNC(=O)c1ccnc(N[C@H]2CC[C@@H](Oc3cc(N4CCOCC4)cc4nccnc34)CC2)n1` [Compound 350] the value was < 100 nM.

On to `Oc1ncc(F)c(N[C@H]2CC[C@@H](Oc3cc(N4CCOCC4)cc4nccnc34)CC2)n1` [Compound 395], for which the Ki was < 100 nM. Regarding `CC(C)c1cc(N[C@H]2CC[C@@H](Oc3cc(N4CCOCC4)cc4nccnc34)CC2)ncn1` [Compound 652], the Ki is < 100 nM. Take `N#CCCN1CCC(c2cnc(N[C@H]3CC[C@@H](Oc4cc(N5CCOCC5)cc5nccnc45)CC3)nc2)CC1` [Compound 519]: the Ki was < 100 nM.

In the case of `CCc1ncnc(N[C@H]2CC[C@@H](Oc3cc(N4CC5CC(C4)O5)cc4nccnc34)CC2)c1F` [Compound 318], the Ki is < 100 nM. With `c1cnc2c(O[C@H]3CC[C@@H](Nc4ncc(CCN5CCCC5)cn4)CC3)cc(N3CCOCC3)cc2n1` [Compound 432] the figure was < 100 nM; with `OCc1ccnc(N[C@H]2CC[C@@H](Oc3cc(N4CCOCC4)cc4nccnc34)CC2)c1` [Compound 615], < 100 nM. For `CNc1nccc(N[C@H]2CC[C@@H](Oc3cc(N4CCOCC4)cc4nccnc34)CC2)n1` [Compound 454] the value was < 100 nM; for `c1cc(CN2CCCCC2)nc(N[C@H]2CC[C@@H](Oc3cc(N4CCOCC4)cc4nccnc34)CC2)n1` [Compound 504], < 100 nM; for `COc1cncc(N[C@H]2CC[C@@H](Oc3cc(N4CCOCC4)cc4nccnc34)CC2)c1` [Compound 446], < 100 nM. For the molecule `c1cc(OCCN2CCOCC2)nc(N[C@H]2CC[C@@H](Oc3cc(N4CCOCC4)cc4nccnc34)CC2)n1` [Compound 560], the Ki was < 100 nM. For `Cc1cncnc1N[C@H]1CC[C@@H](Oc2cc(N3CCOCC3)cc3nccnc23)CC1` [Compound 471] the value was < 100 nM; for `Cc1nccnc1N[C@H]1CC[C@@H](Oc2cc(N3CCOCC3)cc3nccnc23)CC1` [Compound 335], < 100 nM; for `c1cnc2c(O[C@H]3CC[C@@H](Nc4ncnc5cc[nH]c45)CC3)cc(N3CCOCC3)cc2n1` [Compound 517], < 100 nM. For `CN1CC[C@H](Nc2ncnc(N[C@H]3CC[C@@H](Oc4cc(N5CCOCC5)cc5nccnc45)CC3)c2F)C1` [Compound 343], the Ki was < 100 nM.

For the molecule `CN1CCN(Cc2cnc(N[C@H]3CC[C@@H](Oc4cc(N5CCOCC5)cc5nccnc45)CC3)nc2)CC1` [Compound 497], the Ki was < 100 nM. With `CN(C)CCc1cnc(N[C@H]2CC[C@@H](Oc3cc(N4CCOCC4)cc4nccnc34)CC2)nc1` [Compound 431] the figure was < 100 nM; with `Cc1nccc(N[C@H]2CC[C@@H](Oc3cc(N4CCO[C@H](C)C4)cc4nccnc34)CC2)n1` [Compound 290], < 100 nM; with `Cc1nnc2c(N[C@H]3CC[C@@H](Oc4cc(N5CCOCC5)cc5nccnc45)CC3)nccn12` [Compound 310], < 100 nM.

Consider `COc1cnc(N(C)C)nc1N[C@H]1CC[C@@H](Oc2cc(N3CCOCC3)cc3nccnc23)CC1` [Compound 386], for which the Ki was < 100 nM.

On to `c1nc(CN2CCCCC2)cc(N[C@H]2CC[C@@H](Oc3cc(N4CCOCC4)cc4nccnc34)CC2)n1` [Compound 389], for which the Ki is < 100 nM. With `O=c1cc(N[C@H]2CC[C@@H](Oc3cc(N4CCOCC4)cc4nccnc34)CC2)cc[nH]1` [Compound 325] the figure was < 100 nM; with `O=C(N[C@H]1CC[C@@H](Oc2cc(N3CCOCC3)cc3nccnc23)CC1)N1CCOCC1` [Compound 412], < 100 nM. As to `Cc1ncnc(N[C@H]2CC[C@@H](Oc3cc(N4CCOCC4)cc4nccnc34)CC2)c1C` [Compound 491], the Ki is < 100 nM. `COC(=O)[C@H](CC(C)C)NC(=O)N[C@H]1CC[C@@H](Oc2cc(N3CCOCC3)cc3nccnc23)CC1` [Compound 391]: the Ki was < 100 nM.

Take `FC(F)(F)c1ncc(N[C@H]2CC[C@@H](Oc3cc(N4CCOCC4)cc4nccnc34)CC2)cn1` [Compound 428]: the Ki is < 100 nM. With `CN1CCN(c2ncnc(N[C@H]3CC[C@@H](Oc4cc(N5CCOCC5)cc5nccnc45)CC3)c2F)CC1` [Compound 474] the figure was < 100 nM; with `O=C(O)c1cc(N[C@H]2CC[C@@H](Oc3cc(N4CCOCC4)cc4nccnc34)CC2)ncn1` [Compound 653], < 100 nM.

Turning to `c1nc2c(c(N[C@H]3CC[C@@H](Oc4cc(N5CCOCC5)cc5nccnc45)CC3)n1)OCC2` [Compound 464], the inhibition constant Ki was < 100 nM. Consider `c1cc(N[C@H]2CC[C@@H](Oc3cc(N4CCOCC4)cc4nccnc34)CC2)nc(N2CCOCC2)n1` [Compound 534], for which the Ki is < 100 nM.

Consider `CCc1ccnc(N[C@H]2CC[C@@H](Oc3cc(N4CCOCC4)cc4nccnc34)CC2)n1` [Compound 633], for which the Ki is < 100 nM. For `CN1CCN(c2cnc(N[C@H]3CC[C@@H](Oc4cc(N5CCOCC5)cc5nccnc45)CC3)nc2)CC1` [Compound 579] the value was < 100 nM; for `c1cnc2c(O[C@H]3C[C@@H](Nc4ncc5c(n4)COC5)C3)cc(N3CCOCC3)cc2n1` [Compound 355], < 100 nM. For `c1cnc2c(O[C@H]3CC[C@@H](Nc4ncnc5occc45)CC3)cc(N3CCOCC3)cc2n1` [Compound 518] the value was < 100 nM; for `O=Cc1cnc2cc(N3CCOCC3)cc(O[C@H]3CC[C@@H](Nc4ncccn4)CC3)c2n1` [Compound 620], < 100 nM; for `CCOC1CCN(c2cc(N[C@H]3CC[C@@H](Oc4cc(N5CCOCC5)cc5nccnc45)CC3)ncn2)CC1` [Compound 472], < 100 nM. For `Cn1nc(N[C@H]2CC[C@@H](Oc3cc(N4CCOCC4)cc4nccnc34)CC2)c2cccnc21` [Compound 329] the value was < 100 nM.

`Cc1cc(N[C@H]2CC[C@@H](Oc3cc(N4CCOCC4)cc4nccnc34)CC2)ccn1` [Compound 285]: the Ki is < 100 nM.
